Reference: patent US8709745B2, “Methods for isolating ligands of the human bitter taste receptor TAS2R49” (Deutsches Institut für Ernährungsforschung Potsdam-Rehbrücke, priority 2009, dated 2014)
Entries after “also recorded” stand apart in the source; their conditions may differ. Counter-ions that a name gives are not always drawn.

Tests used:
[1] = vendor property list; cited from earlier work
[2] = target: T1, TAS2R49 human bitter taste receptor (Homo sapiens, UniProt P59543, K79E); assay: FLIPR calcium assay in HEK-293T Gα16gust44 cells transiently transfected with SST-hTAS2R49-HSV; assay type: cell-based; details: for activation of hTAS2R49 (calcium response): hTAS2R49 transfected vs mock transfected cells
T1 construct: first 45 amino acids of rat somatostatin receptor type 3 (SST), membrane-targeting signal (N); expressed in transfected cells; host or cells: HEK-293T cells stably expressing the chimeric G-protein alpha subunit Gα16gust44; vector pcDNA5/FRT
T1 sequence (P59543 1-309 K79E): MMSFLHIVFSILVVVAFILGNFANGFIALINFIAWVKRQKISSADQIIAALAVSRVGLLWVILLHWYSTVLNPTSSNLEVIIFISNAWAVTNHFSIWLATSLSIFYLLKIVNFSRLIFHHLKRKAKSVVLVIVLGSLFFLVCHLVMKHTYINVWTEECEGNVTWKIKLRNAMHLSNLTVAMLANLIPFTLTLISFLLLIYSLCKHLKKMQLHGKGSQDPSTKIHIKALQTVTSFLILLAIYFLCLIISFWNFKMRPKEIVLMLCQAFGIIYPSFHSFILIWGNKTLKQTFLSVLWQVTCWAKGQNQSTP
Excerpt: The TAS2R49 human bitter taste receptor was functional expressed in a heterologouse cell system. Therefore, the coding region for this hTAS2R was cloned into a vector (pcDNA5/FRT, Invitrogen, San Diego, Calif.). The construct includes the sequence for the first 45 amino acids of a rat somatostatin receptor type 3 (SST) coupled to the N-terminal end of the receptor for an improvement of receptor membrane targeting. At the C-terminus of the bitter taste receptor a herpes simplex virus glycoprotein D (HSV) epitope was added for immunocytochemical detection. The SST-hTAS2R49-HSV pcDNA5/FRT plasmid construct was transiently transfected into HEK-293T cells stably expressing the chimeric G-protein a subunit Gal6gust44. An empty pcDNA5/FRT plasmid /vector were used as negative control. The cells were seeded into 96-well plates (Greiner Bio-One, Frickenhausen, Germany) under conventional cell culture conditions (Dulbecco's Modified Eagle Medium (DMEM)/10% FCS/1% penicillin/streptomycin; 37° C., 5% CO2, 95% humidity) and 24-26 h later transfected with 150 ng plasmid DNA and 300 ng Lipofectamine 2000 (Invitrogen, San Diego, Calif.). 24-26 h later the cells were loaded with the calcium sensitive dye Fluo4-acetoxymethyl (Molecular Probes, Karlsruhe, Germany) with a final concentration of 20 μM in serum-free DMEM medium. The organic anion-transport inhibitor probenecid (Sigma Aldrich, München, Germany) was added to the dye/medium solution to reduce leakage of the indicator after cleavage of the ester bonds. 1 h after loading, the well plates were washed 3 times with 30 min incubation between the last second wash steps (protected from light) by Denley cell washer (Thermo Fisher Scientific Inc., Waltham, Mass.). The washing solution contains 130 mM NaCl, 5 mM KCl, 10 mM HEPES with pH 7.4, 2 mM CaCl2, and 10 mM Glucose. The agonist was solved and diluted in wash solution.
The elevation of the cytosolic calcium concentration was measured after application of the test substances using the Fluorometric Imaging Plate Reader (FLIPR, Molecular Devices, Munich, Germany) at […]. The vitality of the cells was verified by a second application of 100 nM somatostatin-14, an agonist of the endogenous […] somatostatin receptor type 2. To exclude unspecific responses and false positive signals, mock transfected cells were always measured on the same plate with the same compound concentration each. All experiments were performed at least twice. For the calculation of the dose-response function, the signals of the wells with the same concentration of the agonist were automatically normalized with the control wells (mock transfection, Fmock) by FLIPR384® software (Molecular Devices, Munich, Germany). To consider the dye loading efficiency and the cell number the background fluorescence was measured for each plate/each well and denoted as signal test. […] The calculation of the EC50 values were prepared in SigmaPlot 9.0 by nonlinear regression to the function f(x)=100/[1+(EC50/x)nH], where x is the agonist concentration and nH is the Hill coefficient.

[3] = averaged dose response curve (n=5), FIG. 1

| activation of hTAS2R49 (calcium response) ([2]; listed as Diphenidol) | EC50 [2, 3] [µM] | threshold [2, 3] [mM] | SMILES | water solubility [1] | activation of hTAS2R49 (calcium response) [2] |
| --- | --- | --- | --- | --- | --- |
| – | – | – | O=C(O)c1cc(=O)c2c(OCC(O)COc3cccc4oc(C(=O)O)cc(=O)c34)cccc2o1 [Cromolyn sodium, disodium salt of 5,5′-[(2-hydroxytrimethylene)dioxy]bis[4-oxo-4H-1-benzopyran-2-carboxylate]] | water-soluble | – |
| agonist for hTAS2R49 | – | – | OC(CCCN1CCCCC1)(c1ccccc1)c1ccccc1 [diphenidol] | – | activated the receptor |
| – | 42 ± 13 | ~0.01 | O=C(O)c1cc(=O)c2c(OCC(O)COc3cccc4oc(C(=O)O)cc(=O)c34)cccc2o1 [cromolyn] | – | responded robustly; also recorded: effective agonist of hTAS2R49 |
